Some test systems named below: DU-145 prostate; HOP-62 NSCLC; MALME-3M melanoma; SF-539 CNS; M14 melanoma; 786-0 renal; ACHN renal; BT-549 breast; IGROV1 ovarian; K-562 leukemia; HCT-15 colon; SK-MEL-2 melanoma; MDA-MB-435; HT29 colon.
Common to all, as to experiment: NCI tumour cell line growth inhibition, 48 h

The record followed here is PubChem BioAssay (NCI).

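Five concentrations, 48 hours, 96-well plates. Definition used: TGI = concentration required for complete inhibition of growth.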 A value given as a limit tells only on which side of the number the result lay.

In the case of `O=C(NNC(=S)Nc1ccccc1)C12CC3CC(CC(C3)C1)C2`, the TGI in the experiment on DU-145 prostate was over 100 µM; in the experiment with HOP-62 NSCLC, over 100 µM; with MALME-3M melanoma, over 100 µM; in the experiment on SF-539 CNS, over 100 µM; in the experiment on M14 melanoma, 67 µM; in the experiment with 786-0 renal, over 100 µM. In addition, the TGI was over 100 µM with ACHN renal; 60.8 µM in the experiment on BT-549 breast; over 100 µM in the experiment with IGROV1 ovarian; over 81.6 µM in the experiment with K-562 leukemia; over 100 µM in the experiment with HCT-15 colon; over 86.9 µM in the experiment with SK-MEL-2 melanoma. Besides, the TGI with MDA-MB-435 and with HT29 colon was over 100 µM in each case.

On to `COC(=O)c1ccccc1C1CN=NC12Cc1c(C)cc(C)cc1C2=O` (centres undefined), for which the TGI with DU-145 prostate, in the experiment on HOP-62 NSCLC, in the experiment with MALME-3M melanoma, with SF-539 CNS, in the experiment with M14 melanoma and in the experiment with 786-0 renal was over 100 µM each time. Moreover, the TGI in the experiment with ACHN renal, in the experiment with BT-549 breast, in the experiment with IGROV1 ovarian, in the experiment with K-562 leukemia, with HCT-15 colon and in the experiment on SK-MEL-2 melanoma was over 100 µM each time. The TGI with MDA-MB-435 and in the experiment on HT29 colon was over 100 µM throughout.

With `COc1ccc(C)c2c1N[C@](C)([C@]1(C)Nc3c(OC)ccc(C)c3C1=O)C2=O`, the TGI in the experiment with DU-145 prostate, with HOP-62 NSCLC, in the experiment on MALME-3M melanoma, in the experiment on SF-539 CNS, in the experiment with M14 melanoma and in the experiment on 786-0 renal was over 100 µM each time. In addition, the TGI in the experiment on ACHN renal, in the experiment on BT-549 breast, in the experiment with IGROV1 ovarian, with K-562 leukemia, with HCT-15 colon and in the experiment on SK-MEL-2 melanoma was over 100 µM each time. Also, the TGI with MDA-MB-435 and in the experiment on HT29 colon was over 100 µM in each case.

Regarding `Cc1ccc2c(c1)C(=O)/C(=C1/CCc3ccc(C)cc31)C2`, the TGI with DU-145 prostate, in the experiment with HOP-62 NSCLC, in the experiment with MALME-3M melanoma, with SF-539 CNS, with M14 melanoma and in the experiment on 786-0 renal was over 100 µM each time. Further, the TGI in the experiment on ACHN renal, in the experiment on BT-549 breast, in the experiment on IGROV1 ovarian, in the experiment with K-562 leukemia, in the experiment on HCT-15 colon and in the experiment on SK-MEL-2 melanoma was over 100 µM throughout. Also, the TGI with MDA-MB-435 and with HT29 colon was over 100 µM throughout.

With `CCCSc1cc(Cl)c(C)cc1S(=O)(=O)n1cc[nH]c1=O`, the TGI with DU-145 prostate, in the experiment with HOP-62 NSCLC, in the experiment on MALME-3M melanoma, in the experiment with SF-539 CNS, with M14 melanoma and in the experiment with 786-0 renal was over 100 µM throughout. For the same compound, the TGI in the experiment with ACHN renal, with BT-549 breast, in the experiment with IGROV1 ovarian, in the experiment on K-562 leukemia, in the experiment on HCT-15 colon and in the experiment on SK-MEL-2 melanoma was over 100 µM in each case. In addition, the TGI in the experiment with MDA-MB-435 and in the experiment with HT29 colon was over 100 µM each time.

Consider `CC(=O)C1(c2ccccc2)CCN(Cn2sc3nc(C)cc(C)c3c2=O)CC1`, for which the TGI is over 100 µM in the experiment with DU-145 prostate; over 100 µM in the experiment with HOP-62 NSCLC; 41.5 µM in the experiment on MALME-3M melanoma; 50.9 µM with SF-539 CNS; 71.6 µM in the experiment with M14 melanoma; 30.6 µM with 786-0 renal. For the same compound, the TGI in the experiment on ACHN renal is 33.5 µM; with BT-549 breast it was over 100 µM; in the experiment on IGROV1 ovarian, over 100 µM; with K-562 leukemia, over 100 µM; with HCT-15 colon, 72.8 µM; with SK-MEL-2 melanoma, over 100 µM. The values for the TGI in the experiment with MDA-MB-435 and in the experiment on HT29 colon were 59.8 µM and 36.9 µM, respectively.
